Tests used:
[1] = system: Sheep Anti-Rat Fx1A Serum induced Heymann nephritis; experiment: In vivo efficacy assay of passive Heymann nephritis in rats; settings: male SD rats, intragastric twice a day for 14 days, 5, 20 and 60 mpk; LNP023 60 mpk
From the text: Experimental objective: To investigate the ability of the compounds of the present disclosure to improve renal function of Sheep Anti-Rat Fx1A Serum induced Heymann nephritis in rats, including the evaluation of reducing proteinuria level and improving renal tissue damage.
Experimental animals: Male SD rats, 7 to 10 weeks old, weighing between 200 to 300 g.
Urine was collected from rats on D-2 before administration. On D1, the first day of the experiment, animals in the control group (group 1) were administered 5 mL/kg of Sheep Non-Immune serum via a single tail vein injection; animals in the model and administration groups (groups 2 to 6) were administered 5 mL/kg of Sheep Anti-Rat Fx1A Serum via a single tail vein injection.
The rats were treated by intragastric administration twice a day with an interval of 8 hours and a volume of 10 mL/kg. On D1, 1 hour before modeling, animals in groups 1 and 2 were administered blank vehicle 20% PEG400/10% Solutol/70% water; animals in group 3 were administered LNP023 (60 mpk); animals in groups 4 to 6 were administered different concentrations of synthetic compounds (5 mpk, 20 mpk, and 60 mpk); 8 hours after the first administration, each group was administered again with the same dose and volume as the first administration. From D2 to D14, animals in each group were administered different compounds or vehicles for 14 consecutive days (including the first day) according to the dose, volume, administration method, and frequency on D1.
Urine collection: Urine samples were collected from rats on D-2 before administration, and 2 to 4 hours and 4 to 6 hours after the first administration on D4, D6, D8, D11, and D14 after administration, transferred to EP tubes and stored in a refrigerator at −80° C. to −60° C. for the detection of urine protein and creatinine in rats.
Kidney sample collection: All animals were euthanized with CO2 inhalation anesthesia on Day 15, and bilateral kidneys were collected. The left kidney was cut transversely, and the right kidney was cut longitudinally. Half of the transversely cut kidney (left side) and half of the longitudinally cut kidney (right side) were fixed in formalin (placed in the same EP tube).
4. […] Urine total protein (uTP) in rats was detected without dilution; if exceeding the upper detection limit, it was 10-fold diluted (10 μL of sample+90 μL of saline (0.9% saline)) first (Decrease mode); if still exceeding the upper detection limit after 10-fold dilution, it was 100-fold diluted (2 μL of sample+198 μL of saline (0.9% saline)) (Increase mode). Data were read by the analytical instrument HITACHI LST008AS(P). • (2) Kidney pathological scoring: The degree of drug damage to rat kidneys (paraffin sections) was analyzed by HE staining. […]

[2] = system: LPS-induced complement activation; experiment: In vivo efficacy assay of LPS-induced complement activation in mice; settings: female C57BL/6J mice, LPS 100 μg intraperitoneal, PO
Protocol: Experimental objective: To investigate the inhibitory effect of the compounds of the present disclosure on complement activation in mice induced by LPS stimulation.
Experimental animals: Female C57BL/6J mice, 7 to 9 weeks old, weighing between 17 to 23 g.
Experimental procedure: 100 μg of lipopolysaccharide (LPS) in Salmonella typhimurium (Sigma) dissolved in 100 μL of sterile PBS was intraperitoneally injected to induce complement activation in mice. Negative control animals were intraperitoneally injected 100 μL of sterile PBS and administered alone by tube feeding (PO). Positive control animals were intraperitoneally injected LPS and PO drug vehicles (0.5% (w/v) methyl cellulose and 0.5% (v/v) Tween 80).
Sample collection: 0.3 mL of blood samples were collected from the orbital venous plexus. All blood samples were added to commercially available EDTA-K2 anticoagulant tubes with a specification of 1.5 mL. After collection, within half an hour, the blood sample was centrifuged at 4° C., 3000 g for 10 min to aspirate the supernatant plasma, which was put in dry ice immediately, and stored in a refrigerator at −80° C. for Western blot analysis of downstream C3d protein levels after complement activation.
Sample analysis: Mouse plasma (5 μL)+Lysis buffer (27.5 μL)+Loading buffer (12.5 μL)+Reducing buffer (5 μL) were mixed well and incubated at 100° C. for 15 min with a loading volume of 5 μL/well, i.e., a loading volume of plasma of 0.5 μL per well.
Test compounds: positive compound LNPO23, the final product of Example 158, the final products (compound 159A and compound 159B) of Example 159, and compound 11 of Example 75.

[3] = Pharmacokinetic activity assay in mice; assay type: in vivo; settings: IV 1 mg/kg, PO 10 mg/kg
Protocol: Experimental objective: The test substance was administered to mice via single-dose intravenous and oral gavage routes, and its plasma concentration was measured to evaluate the pharmacokinetic characteristics in mice.
Experimental animals: C57 mice or other available test mice
IV dose: 1 mg/kg; vehicle: 0.5% DMSO or 0.5% MeOH-5% pharmaceutical grade polyethylene glycol-15 hydroxystearate-PBS
Sample collection: 0.03 mL of blood samples were collected from the saphenous vein in experimental animals by puncture at each time point, and the actual blood collection time was recorded. All blood samples were added to commercially available EDTA-K2 anticoagulant tubes with a specification of 1.5 mL (supplied by Jiangsu Kangjian Medical Apparatus Co., Ltd.). After collection, within half an hour, the blood sample was centrifuged at 4° C., 3000 g for 10 min to aspirate the supernatant plasma, which was put in dry ice immediately, and stored in a refrigerator at −80° C. for LCMS/MS analysis.
Blood sampling points: 5 min, 15 min, 30 min, 1 hour, 2 hours, 4 hours, 6 hours, 8 hours, 12 hours, 20 hours, 24 hours.
Test compounds: positive compound LNP023, the final product of Example 158, the final products (compound 159A and compound 159B) of Example 159, and compound 11 of Example 75.

## CCCC1CCN(C(=O)c2c(OC)cc(C)c3[nH]ccc23)C(c2ccc(C(=O)O)cc2)C1 (single isomer, unassigned) [Compound 159B]
[1]
  performance in the kidney disease model through urine and kidney pathology analysis, compared with LNP023: performed better
[2]
  inhibition of LPS-induced complement activation (plasma C3d levels), compared with LNP023: superior or equivalent
[3]
  clearance rate during in vivo metabolism, compared with LNP023: comparable or superior
  half-life during in vivo metabolism, compared with LNP023: comparable or superior
